The source made the active and inactive calls. No cut-off for these calls is given here.

Tested on in the first assay: not listed separately
Nature of the assay: Inhibition of Influenza A virus (A/California/07/2009(H1N1)) recombinant wild type N-terminal FLAG-tagged neuraminidase ectodomain (82 to 469 residues) transfected in Drosophila Schneider S2 cells using 4-MUNANA as substrate after 20 mins by fluorometric method.
For the compound `CCC(CC)O[C@@H]1C=C(P(=O)(O)O)C[C@H](NC(=N)N)[C@H]1NC(C)=O`, the Ki was determined as 0.14 µM.
Consider `CCC(CC)O[C@@H]1C=C(P(=O)(O)OC)C[C@H](N)[C@H]1NC(C)=O`, for which the inhibition constant (Ki) is 0.039 µM.
For `CCC(CC)O[C@@H]1C=C(C(=O)O)C[C@H](NC(=N)N)[C@H]1NC(C)=O`, the Ki was found to be 0.046 µM.
With `CCC(CC)O[C@@H]1C=C(P(=O)(O)O)C[C@H](N)[C@H]1NC(C)=O` [TAMIPHOSPHOR], the inhibition constant (Ki) came to 0.026 µM.

Another assay relates to S2. Put plainly: Binding affinity to Influenza A virus (A/California/07/2009(H1N1)) recombinant wild type N-terminal FLAG-tagged neuraminidase catalytic domain transfected in Drosophila Schneider S2 cells at 76 to 93 uM by isothermal titration calorimetric method.
For `CCC(CC)O[C@@H]1C=C(C(=O)O)C[C@H](N)[C@H]1NC(C)=O` [OSELTAMIVIR CARBOXYLATE], the result was Active.
As for `CCC(CC)O[C@@H]1C=C(P(=O)(O)O)C[C@H](N)[C@H]1NC(C)=O` [TAMIPHOSPHOR], the result was Active.

(Values after ChEMBL document CHEMBL3856207, “Kinetic, thermodynamic and structural analysis of tamiphosphor binding to neuraminidase of H1N1 (2009) pandemic influenza” (Eur J Med Chem, 2016).)
